Consider one substance from patent publication US20110033883A1, “IMAGING DYES AND USE THEREOF” (priority 2007, published 2011).

Ahx = NCCCCCC(=O)O

Series [1] in a line: Luminescence intensity as a function of pH, excited state pKa. It counts as physicochemical. The conditions noted are these: excitation at isosbestic point, luminescence intensity vs pH. On the procedure: Resonance Raman spectroscopy was performed on a Horiba Jobin Yvon HR800UV confocal microscope using an Argon ion Laser (458 nm or 514 nm) or a Helium-Neon (HeNe) laser (633 nm) as the exciting wavelength. Ten spectral acquisitions were accumulated and each acquisition was two seconds in length. Steady-state emission spectra were recorded on a Cary Eclipse Fluorescence spectrophotometer, and luminescence lifetimes were obtained using a Picoquant Fluotime 100 TCSPC system exciting at 470 nm and detecting at 600 nm using a narrow band pass dielectric filter. Quantum yields were measured using the comparative method described by Williams et al. In quenching studies, the luminophore/quencher concentrations were corrected for dilution.
The pH was adjusted with H2SO4 (Sigma-Aldrich) and KOH (Sigma-Aldrich) and measured with a pH meter. UV/vis absorption spectra during the pH titration experiment were corrected for change in volume.
The luminescence wavelength and its intensity are pH dependent. While the emission maximum at pH 7 is at 608 nm, it shifts to higher wavelength with increasing and decreasing pH (λmax (pH 1.3)=623 nm; λmax (pH 11)=616 nm). When the pic ligand is in its neutral state, the luminescence is very bright (Φ=0.06), about 30% more intense than the one of [Ru(bpy)3]^2+. […]

Series [2] relates to Sp2/0-Ag 14 myeloma cells. In words: Sytox green counterstain for cell viability. It counts as cell-based, mouse. The note with it: over 2 hours. How it is done:
(§1) Sp2/0-Ag 14 myeloma cells (ATCC number CRL-1581™) were obtained from the ATCC Cell Biology Collection (United Kingdom). Cells were grown in Dulbecco's modified Eagle's medium (Sigma-Aldrich) supplemented with 10% foetal calf serum (Gibco Invitrogen) and 1% L-glutamine (Gibco Invitrogen) at 37° C. and 5% CO2. Cells were harvested after growing for 2 days. The viability was ensured by testing them in a trypan blue assay. In a usual sample less than 1% of the cells were dead. The growth medium was removed by centrifuging the cells at 2000 rpm for 2 min in an Eppendorff centrifuge, washed twice and resuspended in PBS buffer.
To identify where the Ru dye [Ru(bpy)2(PIC-arg8)]^2+ is localizing inside the cell, cells were counterstained with two commercial dyes. […] Both dyes can be excited with the 458 nm line of an argon ion laser used for excitation of the [Ru(bpy)2(pic-R8)]^n+ dye, however, their fluorescence is in the green (around 500 nm), and therefore could be easily spectrally separated from the fluorescence of the Ru complex. […]
The luminescence images of myeloma cells were recorded with a Zeiss LSM510 Meta confocal microscope, using a 63× oil immersion objective (NA 1.4). […] The luminescence from the Ru complexes was collected using a longpass filter at 560 nm. […]

Series [3] can be described thus: Oxygen quenching of luminescence (Stern-Volmer). It counts as physicochemical. How it is done:
Different oxygen concentrations were adjusted by streaming various O2—N2-mixtures through the solution until equilibrium was reached. The oxygen concentration was measured with an optical O2 electrode (Visiferm DO120, Hamilton). The fluorescence lifetime of the equilibrated dye solutions was measured in a closed-system flow cell.
In air saturated PBS solutions the lifetime drops down to 540 ns when the pic ligand is neutral, and even down to 350 ns, when the pic moiety is deprotonated. Stern-Volmer plots are linear up to air saturated solutions and then start levelling of. The Stern-Volmer quenching constants range actually vary very little with pH 2100 M^−1 for pH 10 to around 2900 M^−1 when the pic moiety is in its neutral state. The corresponding bimolecular rate constants vary between around […] when the pic moiety is deprotonated to […] when the pic moiety is in its neutral state, which is essentially the same within experimental error. This means that within the limited range of the cellular environment the O2 concentration within a cell can be assessed independently of pH using this dye.

The test system of series [4] is Sp2/0-Ag 14 myeloma cells. Put plainly: Confocal luminescence imaging, incorporation and localization in myeloma cells (DiOC6(3) counterstain). It counts as cell-based, mouse. How it is done:
as §1
To identify where the Ru dye [Ru(bpy)2(PIC-arg8)]^2+ is localizing inside the cell, cells were counterstained with two commercial dyes. Sytox green (Invitrogen) which localizes inside the nucleus; and DiOC6(3) (3,3′-dihexyloxacarbocyanine iodide, Invitrogen) which selectively stains mitochondria and at higher concentration other internal membranes, such as the endoplasmatic reticulum, of living cells. Both dyes can be excited with the 458 nm line of an argon ion laser used for excitation of the [Ru(bpy)2(pic-R8)]^n+ dye, however, their fluorescence is in the green (around 500 nm), and therefore could be easily spectrally separated from the fluorescence of the Ru complex. […]
For the fluorescence and fluorescence lifetime experiments 100 μl aliquots of washed myeloma cells were resuspended in PBS buffer (pH 7.4) and incubated with the 3 μl of the Ru-octopeptide (1.2 mM), resulting in a final dye concentration of 3.5×10^−5 M.
The luminescence images of myeloma cells were recorded with a Zeiss LSM510 Meta confocal microscope, using a 63× oil immersion objective (NA 1.4). […] The luminescence from the Ru complexes was collected using a longpass filter at 560 nm. When Sytox green and/or DiOC6(3) were localised in the same cell, the luminescence from the Ru-dye was collected behind a 615 nm longpass filter, while the Sytox green and DiOC6(3) fluorescence was collected with a 465-510 nm bandpass filter in another channel, or by using the meta option of the instrument.

Series [5] relates to human blood platelets. In words: Photobleaching under continuous irradiation at 458 nm of dye-labelled human blood platelets. It counts as cell-based. The note with it: identical conditions. From the text:
Some of the advantages associated with the invention may include: • The dye conjugates described are long-lived and environmentally sensitive. The sensitivity of the dye conjugates can be tailored, e.g. to oxygen partial pressure, pH, water content etc., by altering the ligands and/or the metal ion of the dye conjugate. • Photobleaching: bleaching experiments, for example the data presented in FIG. 10, are a measure of the photostability of the dye conjugate under the types of continuous irradiation required for imaging. […] For example a ruthenium-polypyridyl complex covalently bound to an octa arginine peptide required approximately 20 minutes continuous irradiation for the dye to bleach to 50% of its initial intensity. […] The dye conjugates described herein provide a much greater acquisition time which is a significant advantage to the microscopist/microbiologist. • The synthetic yields for coupling of the Rupic unit to amine functionalities are high. The dye conjugates are functionalised with a single, accessible group, allowing unequivocal reaction with nucleophilic functions on peptides or proteins. […] The dye conjugates are easily synthetically modified to change colour, lifetime, and environmental sensitivity and are highly resistant to photobleaching.
FIG. 10 is a graph showing a photobleaching experiment. […]

For series [6], the system named is human blood platelets. Put plainly: Fluorescence microscopy of human blood platelets incubated with dye conjugates. It counts as cell-based. On the procedure:
Human Blood Platelets were supplied by Niamh Moran and Dermot Kenny and prepared as described Moran et al.
Fluorescence microscopy was performed on human blood platelets incubated in the presence of Ru-Ahx-R5 and Ru-Ahx-R8. […] The process is largely irreversible, removing and washing cells, and resuspending in buffer results in less than 20% loss of emission intensity from the cell. The fluorescence microscopy pictures show intense, long-lived luminescence originating from the platelet; the wavelength of which (around 620 nm) can be assigned to the Ruthenium centres.

On to “[Ru(bpy)2(PicH-R8)]^n+: ruthenium centre with two bipyridine ligands and one picH ligand; octaarginine coupled to pic carboxy end via Ahx spacer, amide linkage ({(Ru(bpy)2(picH))-Ahx}-RRRRRRRR-NH2; also: Ru(bpy)2 picH ruthenium complex attached via Ahx spacer)”, for which, in series [1], the “excited state pKa2*” value is 8.1±0.2. The “cell viability (Sytox green exclusion)” value in series [2] is on record as “did not kill the cells”. For the same substance, the “bimolecular rate constant of oxygen quenching” value in series [3] (pic moiety deprotonated) is “around 3.6×10^−9 M^−1 s^−1”; in series [3] (pic moiety in its neutral state), 3e-09 M⁻¹ s⁻¹. The “incubation time after which dye localises in the nucleus” value in series [4] was more than 40 min. Moreover, the “time until penetration into the cells is complete” value in series [4] (3.5×10^−5 M dye) lay within 15 to 20 min. Moreover, the “preference for mitochondria (DiOC6(3) counterstain)” value in series [4] (20 mins incubation) was “no special preferences for mitochondria”. In series [5], the “continuous irradiation time for the dye to bleach to 50% of its initial intensity” value is recorded as “approximately 20 minutes”. Moreover, the “loss of emission intensity from the cell after removing, washing and resuspending in buffer” value in series [6] is given as “less than 20%”. The “transport across the platelet membrane” value in series [6] (fluorescence microscopy) is “transported through the cells membrane to accumulate intracellularly”.
